In assay [1] the target is T1, MNK1 (Homo sapiens, UniProt Q9BUB5).
T1 construct: purchased Life Technologies or Carna Biosciences PV6023 or 02-145; host or cells: baculovirus infected insect cells
Description: MNK inhibition assay (Z-Lyte kinase assay, Ser/Thr 7 peptide). The format is biochemical. Conditions: for pIC50: recombinant GST-MNK1, 3 hours at 31° C.; for inhibition at 1 µM / inhibition at 10 µM: read-out: Inhibition of MNK1 activity at indicated concentration. The gist of the method:
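Recombinant GST-MNK1 from baculovirus-infected insect cells, Z-Lyte Ser/Thr 7 peptide, enzyme set for ~30% phosphorylation in buffer-only wells; 3 hours at 31° C. Compounds at 50–10000 nM (potent ones down to 0.5 nM), at least duplicate. IC50 from % substrate phosphorylation versus buffer-only wells, fluorescence read-out.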

For assay [2], the system named is human pancreatic cancer cell line MiaPaCa2 (ATCC CRL-1420). As to the kind of experiment: Cell growth assay (CellTiterGlo, 72 hours). The format is cell-based. As to conditions: for inhibition at 50 µM: MIA PaCa-2, at 50 μM; for inhibition at 50 µM / inhibition at 100 µM: read-out: Inhibition of MiaPaCa growth at indicated concentration; for pIC50: MIA PaCa-2, MiaPaCa2 cells, 72 hours, read-out: IC50 MiaPaCa; for inhibition at 100 µM: MIA PaCa-2, at 100 μM. Summed up:
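MiaPaCa2 cells (10^3/well) seeded in supplemented DMEM overnight, then exposed in quadruplicate to compound at 100 down to 0.1 μM for 72 h at 37° C. Growth read by CellTiterGlo luminescence, medium-only background subtracted, normalised to untreated cells; IC50 = concentration reducing growth to 50%.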

pIC50: −log10 of the molar value.

T1 sequence (Q9BUB5 whole entry): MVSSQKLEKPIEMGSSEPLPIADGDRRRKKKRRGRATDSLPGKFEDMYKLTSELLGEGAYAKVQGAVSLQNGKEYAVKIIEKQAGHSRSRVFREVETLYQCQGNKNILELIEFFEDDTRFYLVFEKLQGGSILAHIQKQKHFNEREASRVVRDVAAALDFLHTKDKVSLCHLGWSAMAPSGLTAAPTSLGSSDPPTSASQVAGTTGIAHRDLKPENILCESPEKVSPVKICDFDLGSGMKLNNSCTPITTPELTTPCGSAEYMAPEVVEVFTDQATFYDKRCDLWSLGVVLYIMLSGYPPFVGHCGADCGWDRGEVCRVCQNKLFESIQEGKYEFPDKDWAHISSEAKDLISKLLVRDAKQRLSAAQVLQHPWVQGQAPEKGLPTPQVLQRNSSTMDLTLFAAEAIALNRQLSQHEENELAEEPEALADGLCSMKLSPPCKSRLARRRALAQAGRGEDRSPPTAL

Take `c1coc(-c2cncc3ccc(CN4CCNCC4)cc23)c1` [Example 225]: the pIC50 in assay [1] is 7.02. Moreover, in assay [2], the inhibition at 50 µM stood at 65%.

Turning to `Nc1cccc(Nc2ccc3cncc(-c4cc5ccccc5o4)c3c2)c1` [Example 135], the negative-log IC50 (pIC50) in assay [1] was 5.33; in assay [2], 4.96.

For `NCc1cccc(-c2cncc3ccc(CN4CCC(N)CC4)cc23)c1` [Example 184], the inhibition at 1 µM in assay [1] was determined as 35%. Moreover, in assay [2], the pIC50 is 5.10.

For the compound `COc1cccc(-c2cncc3ccc(CN4CCC(N)CC4)cc23)c1` [Example 198], the pIC50 in assay [1] is 6.05; in assay [2], 4.95.

Turning to `c1ccc2oc(-c3cncc4ccc(CN5CCNCC5)cc34)cc2c1` [Example 224, 4-(Benzofuran-2-yl)-6-(piperazin-1-ylmethyl)isoquinoline], the pIC50 in assay [1] is 6.65; in assay [2], 4.94.

`NC1CCN(Cc2cc3c(-c4cc5ccccc5o4)cncc3c(Cl)c2Cl)CC1` [Example 280, 1-[[4-(Benzofuran-2-yl)-7,8-dichloro-6-isoquinolyl]methyl]piperidin-4-amine]: the pIC50 in assay [1] is 6.27; in assay [2] it was 5.25.

In the case of `N#Cc1ccc(-c2cncc3ccc(CN4CCC(N)CC4)cc23)cc1` [Example 4], the figures for the negative-log IC50 (pIC50) in assay [1] and in assay [2] were 6.48 and 4.59, respectively.

Take `NCc1cccc(NCc2ccc3cncc(-c4cc5ccccc5o4)c3c2)c1` [Example 53]: the figures for the negative-log IC50 (pIC50) in assay [1] and in assay [2] were 6.24 and 4.73, respectively.

`Cc1cc(NCc2ccc3cncc(-c4cc5ccccc5o4)c3c2)cc(C)n1` [Example 126]: the negative-log IC50 (pIC50) in assay [1] is 6.44; in assay [2], 5.26.

On to `NC1CCN(Cc2ccc3cncc(-c4ccc(NC(=O)Nc5ccccc5)cc4)c3c2)CC1` [Example 31, 1-[4-[6-[(4-Amino-1-piperidyl)methyl]-4-isoquinolyl]phenyl]-3-phenyl-urea], for which the negative logarithm of the IC50 (pIC50) in assay [1] is 6.32; in assay [2] it was 5.66.

For the compound `NC1CCCN(Cc2ccc3cncc(-c4cc5ccccc5o4)c3c2)C1` (stereo not shown) [Example 293], the pIC50 in assay [1] was 5.68; in assay [2] it was 4.84.

With `N[C@H]1CC[C@H](Oc2ccc3cncc(-c4cc5ccccc5o4)c3c2)CC1` [Example 79, 4-[[4-(Benzofuran-2-yl)-6-isoquinolyl]oxy]cyclohexanamine], the pIC50 in assay [1] is 6.40; in assay [2] it was 5.33.

Consider `NC1CCN(Cc2ccc3cncc(-c4nc5ccccc5o4)c3c2)CC1` [Example 228], for which the negative-log IC50 (pIC50) was 6.32 in assay [1] and 5.30 in assay [2].

Regarding `Nc1ncc(-c2ccc(F)cc2)c2cc(CN3CCC(N)CC3)ccc12` [Example 219], the pIC50 in assay [1] is 5.99; in assay [2], 5.27.

`N[C@H]1CC[C@@H](Oc2ccc3cncc(-c4cc5ccccc5o4)c3c2)CC1` [Example 80]: the negative-log IC50 (pIC50) in assay [1] was 6.17; in assay [2], 5.45.

On to `Nc1ccc(-c2cncc3ccc(CN4CCC(N)CC4)cc23)cn1` [Example 17], for which the inhibition at 10 µM in assay [1] amounted to 100%. The inhibition at 50 µM in assay [2] worked out at 61%.

As for `NCCCCNCc1ccc2cncc(-c3ccc(O)cc3)c2c1` [Example 35, 4-[6-[(4-Aminobutylamino)methyl]-4-isoquinolyl]phenol], in assay [1], the inhibition at 1 µM was 56%. Besides, the pIC50 in assay [2] is 4.93.

As to `Nc1ncc(-c2ccc(F)c(F)c2)c2cc(CN3CCC(N)CC3)ccc12` [Example 221], the pIC50 was 6.45 in assay [1] and 5.30 in assay [2].

As for `CCOc1cc(CN2CCC(N)CC2)cc2c(-c3cc4ccccc4o3)cncc12` [Example 281, 1-[[4-(Benzofuran-2-yl)-8-ethoxy-6-isoquinolyl]methyl]piperidin-4-amine], the negative-log IC50 (pIC50) in assay [1] was 6.53; in assay [2] it was 5.55.

For `CC(C)(C)c1cc(NC(=O)Nc2ccc(-c3cncc4ccc(CN5CCC(N)CC5)cc34)cc2)no1` [Example 116], the negative-log IC50 (pIC50) in assay [1] is 6.05; in assay [2], 5.51.

For the compound `COc1cc(CN2CCC(N)CC2)cc2c(-c3ccc(Cl)cc3)cnc(N)c12` [Example 295, 6-[(4-Amino-1-piperidyl)methyl]-4-(4-chlorophenyl)-8-methoxy-isoquinolin-1-amine], the pIC50 was 6.52 in assay [1] and 5.77 in assay [2].

On to `COc1cc2c(N)ncc(-c3ccccc3)c2cc1CN1CCC(N)CC1` [Example 267, 6-[(4-Amino-1-piperidyl)methyl]-7-methoxy-4-phenyl-isoquinolin-1-amine], for which the figures for the pIC50 in assay [1] and in assay [2] were 6.47 and 5.41, respectively.

In the case of `Nc1ncc(-c2ccccc2)c2cc(CN3CCC(N)CC3)ccc12` [Example 92], the negative-log IC50 (pIC50) in assay [1] is 6.24; in assay [2] it was 5.14.

`c1ccc(-c2cnnc3ccc(CN4CCNCC4)cc23)cc1` [Example 83, 4-Phenyl-6-(piperazin-1-ylmethyl)cinnoline]: in assay [1], the inhibition at 10 µM was 54%. Also, the inhibition at 100 µM in assay [2] worked out at 31%.

With `N[C@H]1CC[C@@H](NC(=O)c2ccc3cncc(-c4cc5ccccc5o4)c3c2)CC1` [Example 161], the pIC50 in assay [1] is 6.33; in assay [2] it was 4.62.

`NCc1cccc(Nc2ccc3cncc(-c4cc5ccccc5o4)c3c2)c1` [Example 136]: the negative logarithm of the IC50 (pIC50) was 6.25 in assay [1] and 4.69 in assay [2].

On to `NC1CCN(Cc2cc3c(-c4ccccc4)cncc3cc2Cl)CC1` [Example 251, 1-[(7-Chloro-4-phenyl-6-isoquinolyl)methyl]piperidin-4-amine], for which the negative logarithm of the IC50 (pIC50) in assay [1] is 7.26; in assay [2], 5.34.

On to `Nc1ncc(-c2cc(F)cc(F)c2)c2cc(CN3CCC(N)CC3)ccc12` [Example 222], for which the negative logarithm of the IC50 (pIC50) was 5.72 in assay [1] and 5.46 in assay [2].

On to `NCCCOCc1ccc2c(N)ncc(-c3ccc(NC(=O)Nc4ccccc4)cc3)c2c1` [Example 112, 1-[4-[1-Amino-6-(3-aminopropoxymethyl)-4-isoquinolyl]phenyl]-3-phenyl-urea], for which the inhibition at 1 µM in assay [1] amounted to 19%. The pIC50 in assay [2] was 4.36.

Consider `O=c1cc(NCc2ccc3cncc(-c4cc5ccccc5o4)c3c2)cc[nH]1` [Example 74], for which the negative logarithm of the IC50 (pIC50) in assay [1] was 8.28; in assay [2] it was 4.72.

Regarding `CN1CCN(Cc2ccc3cncc(-c4cc5ccccc5o4)c3c2)CC1` [Example 47], the pIC50 in assay [1] is 5.95; in assay [2], 4.96.

In the case of `NC1CCN(Cc2ccc3cncc(-c4cc5ccccc5o4)c3c2)CC1(F)F` (stereo not shown) [Example 263, 1-[[4-(Benzofuran-2-yl)-6-isoquinolyl]methyl]-3,3-difluoro-piperidin-4-amine], the pIC50 in assay [1] was 6.15; in assay [2], 5.00.

Turning to `CN(C)CCCNCc1ccc2cncc(-c3ccc(O)cc3)c2c1` [Example 43, 4-[6-[[3-(Dimethylamino)propylamino]methyl]-4-isoquinolyl]phenol], the figures for the pIC50 in assay [1] and in assay [2] were 6.66 and 4.49, respectively.

In the case of `COc1ccc(-c2cncc3ccc(CN4CCC(N)CC4)cc23)cc1OC` [Example 202], the negative logarithm of the IC50 (pIC50) in assay [1] is 5.90; in assay [2], 4.71.

In the case of `NC1CCN(Cc2ccc3cncc(-c4ccc(NC(=O)Nc5ccccn5)cc4)c3c2)CC1` [Example 119], the figures for the negative logarithm of the IC50 (pIC50) in assay [1] and in assay [2] were 6.41 and 5.59, respectively.

Take `NC1CCN(Cc2ccc3cncc(-c4ccc5ccncc5c4)c3c2)CC1` [Example 194]: the values for the pIC50 in assay [1] and in assay [2] were 6.10 and 4.79, respectively.

In the case of `COc1cc2cncc(-c3cc4ccccc4o3)c2cc1CN1CCC(N)CC1` [Example 282, 1-[[4-(Benzofuran-2-yl)-7-methoxy-6-isoquinolyl]methyl]piperidin-4-amine], the negative logarithm of the IC50 (pIC50) in assay [1] is 6.82; in assay [2] it was 5.33.

As to `N[C@@H]1CCC[C@@H](Nc2ccc3cncc(-c4cc5ccccc5o4)c3c2)C1` [Example 291], the pIC50 in assay [1] was 6.20; in assay [2] it was 5.32.

Turning to `NC1CCN(Cc2ccc3nncc(-c4cc5ccccc5o4)c3c2)CC1` [Example 144, 1-[[4-(Benzofuran-2-yl)cinnolin-6-yl]methyl]piperidin-4-amine], the negative-log IC50 (pIC50) in assay [1] was 5.72; in assay [2], 5.34.

On to `Oc1ccc(-c2cncc3ccc(CNC4CCNC4)cc23)cc1` (stereo not shown) [Example 41], for which the pIC50 in assay [1] is 6.60. Moreover, the inhibition at 100 µM in assay [2] stood at 67%.

Turning to `Nc1ncc(-c2ccc(Cl)cc2)c2cc(CN3CCC(N)CC3)ccc12` [Example 215], the negative-log IC50 (pIC50) was 6.33 in assay [1] and 5.48 in assay [2].

With `NC1CCN(Cc2ccc3cncc(-c4ccc5cccnc5c4)c3c2)CC1` [Example 196], the figures for the pIC50 in assay [1] and in assay [2] were 6.48 and 4.69, respectively.

Turning to `c1ccc2oc(-c3cncc4ccc(NC5CCCNC5)cc34)cc2c1` (stereo not shown) [Example 212], the negative logarithm of the IC50 (pIC50) in assay [1] is 6.38; in assay [2] it was 5.77.

In the case of `NC1CCN(Cc2ccc3cncc(-c4ccc(Cl)c(Cl)c4)c3c2)CC1` [Example 200], the negative-log IC50 (pIC50) in assay [1] is 6.61; in assay [2], 4.79.

Take `COc1cc(CN2CCC(N)CC2)cc2c(-c3ccc(Cl)cc3)cncc12` [Example 288]: the pIC50 is 6.62 in assay [1] and 5.34 in assay [2].

In the case of `NC1CCN(Cc2ccc3cncc(-c4ccc5occc5c4)c3c2)CC1` [Example 172], the negative-log IC50 (pIC50) was 6.57 in assay [1] and 4.92 in assay [2].

Turning to `NC1CCN(Cc2ccc3cncc(-c4ccc5ccccc5c4)c3c2)CC1` [Example 174], the values for the negative logarithm of the IC50 (pIC50) in assay [1] and in assay [2] were 6.33 and 5.33, respectively.

The pIC50 is the negative decadic logarithm of the IC50, by convention in mol/L.

The values above are taken from patent US20200031811A1, “SUBSTITUTED MONO- AND POLYAZANAPHTHALENE DERIVATIVES AND THEIR USE” (Basilea Pharmaceutica International AG, priority 2015, published 2020).
